Measured values reported in ChEMBL document CHEMBL3045393, “Aryldiones incorporating a [1,4,5]oxadiazepane ring. Part I: Discovery of the novel cereal herbicide pinoxaden” (Bioorg Med Chem, 2009).

How the values were obtained:
Hordeum vulgare [1] = experiment: Phytotoxicity against Hordeum vulgare (barley) at 500 g a.i./ha applied post-emergence measured after 15 days; type: organism-based; details: in vivo, other, 360 h
Setaria faberi [2] = experiment: Post-emergence herbicidal activity against Setaria faberi (Giant Foxtail) at 500 g a.i./ha measured after 15 days; type: functional
Lolium perenne [3] = experiment: Post-emergence herbicidal activity against Lolium perenne (perennial ryegrass) at 500 g a.i./ha measured after 15 days; type: functional
Avena fatua [4] = experiment: Post-emergence herbicidal activity against Avena fatua at 500 g a.i./ha measured after 15 days; type: functional
Alopecurus myosuroides [5] = experiment: Post-emergence herbicidal activity against Alopecurus myosuroides at 500 g a.i./ha measured after 15 days; type: functional
Triticum aestivum [6] = experiment: Phytotoxicity against Triticum aestivum (wheat) at 500 g a.i./ha applied post-emergence measured after 15 days; type: organism-based; details: in vivo, other, 360 h
Setaria faberi [7] = experiment: Post-emergence herbicidal activity against Setaria faberi (Giant Foxtail) at 2000 g a.i./ha after 21 days; type: functional
Lolium perenne [8] = experiment: Post-emergence herbicidal activity against Lolium perenne (perennial ryegrass) at 500 g a.i./ha after 21 days; type: functional
Lolium perenne [9] = experiment: Post-emergence herbicidal activity against Lolium perenne (perennial ryegrass) at 2000 g a.i./ha after 21 days; type: functional
Avena fatua [10] = experiment: Post-emergence herbicidal activity against Avena fatua at 500 g a.i./ha after 21 days; type: functional
Avena fatua [11] = experiment: Post-emergence herbicidal activity against Avena fatua at 2000 g a.i./ha after 21 days; type: functional
Setaria faberi [12] = experiment: Post-emergence herbicidal activity against Setaria faberi (Giant Foxtail) at 500 g a.i./ha after 21 days; type: functional
Setaria faberi [13] = experiment: Post-emergence herbicidal activity against Setaria faberi (Giant Foxtail) at 250 g a.i./ha measured after 21 days in presence of 1% Merge adjuvant; type: functional
Lolium perenne [14] = experiment: Post-emergence herbicidal activity against Lolium perenne (perennial ryegrass) at 250 g a.i./ha measured after 21 days in presence of 1% Merge adjuvant; type: functional
Alopecurus myosuroides [15] = experiment: Post-emergence herbicidal activity against Alopecurus myosuroides at 250 g a.i./ha measured after 21 days in presence of 1% Merge adjuvant; type: functional
Triticum aestivum [16] = experiment: Phytotoxicity against Triticum aestivum (wheat) at 250 g a.i./ha applied post-emergence measured after 21 days in presence of 1% Merge adjuvant; type: organism-based; details: in vivo, other, 504 h
Hordeum vulgare [17] = experiment: Phytotoxicity against Hordeum vulgare (barley) at 250 g a.i./ha applied post-emergence measured after 21 days in presence of 1% Merge adjuvant; type: organism-based; details: in vivo, other, 504 h
Avena fatua [18] = experiment: Post-emergence herbicidal activity against Avena fatua at 250 g a.i./ha measured after 21 days in presence of 1% Merge adjuvant; type: functional
Lolium perenne [19] = experiment: Post-emergence herbicidal activity against Lolium perenne (perennial ryegrass) at 30 g a.i./ha measured after 21 days in presence of 1% Merge adjuvant; type: functional
Alopecurus myosuroides [20] = experiment: Post-emergence herbicidal activity against Alopecurus myosuroides at 30 g a.i./ha measured after 21 days in presence of 1% Merge adjuvant; type: functional
Avena fatua [21] = experiment: Post-emergence herbicidal activity against Avena fatua at 30 g a.i./ha measured after 21 days in presence of 1% Merge adjuvant; type: functional
Triticum aestivum [22] = experiment: Phytotoxicity against Triticum aestivum (wheat) at 30 g a.i./ha applied post-emergence measured after 21 days in presence of 1% Merge adjuvant; type: organism-based; details: in vivo, other, 504 h
Hordeum vulgare [23] = experiment: Phytotoxicity against Hordeum vulgare (barley) at 30 g a.i./ha applied post-emergence measured after 21 days in presence of 1% Merge adjuvant; type: organism-based; details: in vivo, other, 504 h
Setaria faberi [24] = experiment: Post-emergence herbicidal activity against Setaria faberi (Giant Foxtail) at 30 g a.i./ha measured after 21 days in presence of 1% Merge adjuvant; type: functional

| Structure (SMILES) | Activity (Hordeum vulgare [1]) | Activity (Setaria faberi [2]) | Activity (Lolium perenne [3]) | Activity (Avena fatua [4]) | Activity (Alopecurus myosuroides [5]) | Activity (Triticum aestivum [6]) | Activity (Setaria faberi [7]) | Activity (Lolium perenne [8]) | Activity (Lolium perenne [9]) | Activity (Avena fatua [10]) | Activity (Avena fatua [11]) | Activity (Setaria faberi [12]) | also measured |
| --- | --- | --- | --- | --- | --- | --- | --- | --- | --- | --- | --- | --- | --- |
| Cc1cc(C)c(C2C(=O)N3CCC(C)CCN3C2=O)c(C)c1 | 60% | 60% | 80% | 90% | 90% | 20% |  |  |  |  |  |  |  |
| Cc1cc(C)c(C2C(=O)N3C[C@H]4CCCC[C@H]4CN3C2=O)c(C)c1 (some centres not stated) | 60% | 60% | 90% | 80% | 60% | 50% |  |  |  |  |  |  |  |
| Cc1cc(C)c(C2C(=O)N3CCSCCN3C2=O)c(C)c1 |  |  |  |  |  |  | 100% | 50% | 90% | 60% | 90% | 90% |  |
| Cc1cc(C)c(C2C(=O)N3CCCOCN3C2=O)c(C)c1 (configuration not stated) |  |  |  |  |  |  |  |  |  |  |  |  | Activity (Setaria faberi [13]): 50%; Activity (Lolium perenne [14]): 20%; Activity (Alopecurus myosuroides [15]): 0%; Activity (Triticum aestivum [16]): 10%; Activity (Hordeum vulgare [17]): 10%; Activity (Avena fatua [18]): 0% |
| Cc1cc(C)c(C2C(=O)N3CC(C)CN3C2=O)c(C)c1 | 50% | 50% | 60% | 90% | 50% | 40% |  |  |  |  |  |  |  |
| Cc1cc(C)c(C2C(=O)N3CC(C)(C)CN3C2=O)c(C)c1 | 90% | 90% | 90% | 90% | 100% | 60% |  |  |  |  |  |  |  |
| Cc1cc(C)c(C2C(=O)N3CCOCCN3C2=O)c(C)c1 |  |  |  |  |  |  | 100% | 90% | 100% | 80% | 100% | 80% | Activity (Lolium perenne [19]): 80%; Activity (Alopecurus myosuroides [20]): 10%; Activity (Avena fatua [21]): 60%; Activity (Triticum aestivum [22]): 0%; Activity (Hordeum vulgare [23]): 0%; Activity (Setaria faberi [13]): 90%; Activity (Lolium perenne [14]): 90%; Activity (Alopecurus myosuroides [15]): 80%; Activity (Triticum aestivum [16]): 50%; Activity (Hordeum vulgare [17]): 20%; Activity (Setaria faberi [24]): 50%; Activity (Avena fatua [18]): 90% |
| CCOc1c(-c2c(CC)cc(C)cc2CC)c(=O)n2n1CCOCC2 |  |  |  |  |  |  |  |  |  |  |  |  | Activity (Lolium perenne [19]): 20%; Activity (Alopecurus myosuroides [20]): 0%; Activity (Avena fatua [21]): 0%; Activity (Triticum aestivum [22]): 0%; Activity (Hordeum vulgare [23]): 0%; Activity (Setaria faberi [24]): 0% |
| Cc1cc(C)c(-c2c(OC(=O)C(C)(C)C)n3n(c2=O)CC[S+]([O-])CC3)c(C)c1 (configuration not stated) |  |  |  |  |  |  | 80% | 20% | 50% | 20% | 80% | 40% |  |
| Cc1cc(C)c(C2C(=O)N3CCCC(C)N3C2=O)c(C)c1 (configuration not stated) | 80% | 40% | 90% | 90% | 40% | 20% |  |  |  |  |  |  |  |
| Cc1cc(C)c(C2C(=O)N(C)N(C)C2=O)c(C)c1 | 20% | 80% | 50% | 40% | 40% | 10% |  |  |  |  |  |  |  |
| COC1CN2C(=O)C(c3c(C)cc(C)cc3C)C(=O)N2C1 | 0% | 60% | 20% | 20% | 20% | 0% |  |  |  |  |  |  |  |
| Cc1cc(C)c(-c2c(OC(=O)C(C)(C)C)n3n(c2=O)CCS(=O)(=O)CC3)c(C)c1 |  |  |  |  |  |  | 50% | 10% | 50% | 20% | 80% | 10% |  |
| Cc1cc(C)c(C2C(=O)N3CCS(=O)(=O)CCN3C2=O)c(C)c1 |  |  |  |  |  |  | 60% | 20% | 60% | 60% | 80% | 20% |  |
| CCc1cc(C)cc(CC)c1-c1c(OS(=O)(=O)N(C)C)n2n(c1=O)CCOCC2 |  |  |  |  |  |  |  |  |  |  |  |  | Activity (Lolium perenne [19]): 50%; Activity (Alopecurus myosuroides [20]): 0%; Activity (Avena fatua [21]): 10%; Activity (Triticum aestivum [22]): 0%; Activity (Hordeum vulgare [23]): 0%; Activity (Setaria faberi [24]): 20% |
